Literature values as cited in PMC4405790 (Pharmaceutical research, 2012).
Entries after “also recorded” stand apart in the source; their conditions may differ.

Experiments:
[1] = aqueous

## Cc1cc(C)cc(C(=O)c2c(C(C)C)c(=O)[nH]c(=O)n2CC2CC2)c1 [IQP-0528, 1-(3-Cyclopropyl)methyl-6-(3,5-dimethylbenzoyl)-5-isopropyl-2,4(1H,3H)-pyrimidinedione]
[1]
  solubility: low solubility; also recorded: very low solubility
HIV
  activity against laboratory strains of virus: nanomolar
  activity against representative clinical strains of HIV: nanomolar to subnanomolar
HIV; cell-based in vitro assays
  level of activity as a NNRTI: subnanomolar
  level of activity as inhibitor of a step in virus entry: nanomolar
